We go through three compounds from patent US20210221866A1, “PROTEASE-RESISTANT LIPIDATED GLP-1 ANALOGS” (MEDIMMUNE LIMITED, priority 2015, published 2021).

Square brackets hold non-standard residues; d marks the D form. Peptide text beside a SMILES is read from it. αMeF = C[C@](N)(Cc1ccccc1)C(=O)O; αMeK = C[C@](N)(CCCCN)C(=O)O; αMeS = C[C@](N)(CO)C(=O)O; Aib = CC(C)(N)C(=O)O

T1 sequence (P43220 24-463): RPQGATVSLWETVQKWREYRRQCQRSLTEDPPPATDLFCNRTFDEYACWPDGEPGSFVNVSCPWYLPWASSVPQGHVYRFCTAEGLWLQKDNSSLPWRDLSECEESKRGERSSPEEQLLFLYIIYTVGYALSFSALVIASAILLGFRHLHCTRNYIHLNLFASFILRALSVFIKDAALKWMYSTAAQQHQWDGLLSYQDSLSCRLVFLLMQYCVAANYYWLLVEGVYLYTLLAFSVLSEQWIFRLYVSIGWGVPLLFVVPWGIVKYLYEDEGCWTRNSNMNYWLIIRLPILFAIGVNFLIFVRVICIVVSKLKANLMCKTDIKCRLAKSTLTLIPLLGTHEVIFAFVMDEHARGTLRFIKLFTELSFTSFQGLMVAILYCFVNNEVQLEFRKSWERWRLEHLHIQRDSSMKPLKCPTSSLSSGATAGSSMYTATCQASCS

The assay has as its target T1, human GLP-1 receptor (GLP-1R) (Homo sapiens, UniProt P43220).
T1 construct: expressed in transfected cells; host or cells: HEK293 cells or CHO cells
Nature of the assay: cAMP assay, human GLP-1R cells. The class given is cell-based. The settings on record: cAMP activity; mean of n1 and n2; read-out: Mean pM GLP-1R. A digest of the protocol: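 Peptide-stimulated cAMP measured by two-step HTRF after a 30 min room-temperature incubation with receptor-expressing cells (hGLP-1R, hGIPR at 1×10^5 cells/ml; hGCGR at 2×10^5 cells/ml). Duplicate dilutions; EC50 from 4-parameter logistic fit of % Delta F.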
On the technique in general: Cyclic AMP is a second messenger, typically raised through Gs and lowered through Gi signalling.
Regarding `CC[C@H](C)[C@H](NC(=O)[C@](C)(Cc1ccccc1)NC(=O)[C@H](CCC(=O)O)NC(=O)[C@](C)(CCCCN)NC(=O)[C@H](C)NC(=O)[C@H](C)NC(=O)[C@H](CCC(=O)O)NC(=O)CNC(=O)[C@H](CCC(=O)O)NC(=O)[C@H](CC(C)C)NC(=O)[C@](C)(Cc1ccccc1)NC(=O)[C@H](CO)NC(=O)[C@](C)(CO)NC(=O)[C@@H](NC(=O)[C@H](CC(=O)O)NC(=O)[C@@H](NC(=O)[C@@H](NC(=O)[C@](C)(Cc1ccccc1)NC(=O)[C@H](CO)NC(=O)CNC(=O)[C@H](CCC(=O)O)NC(=O)C(C)(C)NC(=O)[C@@H](N)Cc1c[nH]cn1)[C@@H](C)O)[C@@H](C)O)C(C)C)C(=O)N[C@@H](C)C(=O)N[C@@](C)(Cc1ccccc1)C(=O)N[C@H](C(=O)N[C@H](C(=O)N[C@@](C)(CCCCN)C(=O)NCC(=O)NCC(N)=O)C(C)C)C(C)C` [compound 29] (H-H[Aib]EGS[αMeF]TTDV[αMeS]S[αMeF]LEGEAA[αMeK]E[αMeF]IA[αMeF]VV[αMeK]GG-NH2), the EC50 was determined as 801 pM.

On to `CC[C@H](C)[C@H](NC(=O)[C@H](Cc1ccccc1)NC(=O)[C@H](CCC(=O)O)NC(=O)[C@H](CCCCN)NC(=O)[C@H](C)NC(=O)[C@H](C)NC(=O)[C@H](CCC(N)=O)NC(=O)CNC(=O)[C@H](CCC(=O)O)NC(=O)[C@H](CC(C)C)NC(=O)[C@H](Cc1ccc(O)cc1)NC(=O)[C@H](CO)NC(=O)[C@H](CO)NC(=O)[C@@H](NC(=O)[C@H](CC(=O)O)NC(=O)[C@H](CO)NC(=O)[C@@H](NC(=O)[C@H](Cc1ccccc1)NC(=O)[C@@H](NC(=O)CNC(=O)[C@H](CCC(=O)O)NC(=O)C(C)(C)NC(=O)[C@@H](N)Cc1c[nH]cn1)[C@@H](C)O)[C@@H](C)O)C(C)C)C(=O)N[C@@H](C)C(=O)N[C@@H](Cc1c[nH]c2ccccc12)C(=O)N[C@@H](CC(C)C)C(=O)N[C@H](C(=O)N[C@@H](CCCCN)C(=O)NCC(=O)N[C@@H](CCCNC(=N)N)C(=O)N[C@@H](CCCCNC(=O)COCCOCCNC(=O)COCCOCCNC(=O)CC[C@H](NC(=O)CCCCCCCCCCCCCCCCC(=O)O)C(=O)O)C(N)=O)C(C)C` [compound 6], for which the EC50 is 5.1 pM.

For `CC[C@H](C)[C@H](NC(=O)[C@](C)(Cc1ccccc1)NC(=O)[C@H](CCC(=O)O)NC(=O)[C@H](CCCCNC(=O)CC[C@H](NC(=O)CC[C@H](NC(=O)CCCCCCCCCCCCCCCCC(=O)O)C(=O)O)C(=O)O)NC(=O)[C@H](C)NC(=O)[C@H](C)NC(=O)[C@H](CCC(=O)O)NC(=O)CNC(=O)[C@H](CCC(=O)O)NC(=O)[C@H](CC(C)C)NC(=O)[C@](C)(Cc1ccccc1)NC(=O)[C@H](CO)NC(=O)[C@](C)(CO)NC(=O)[C@@H](NC(=O)[C@H](CC(=O)O)NC(=O)[C@H](CO)NC(=O)[C@@H](NC(=O)[C@](C)(Cc1ccccc1)NC(=O)[C@H](CO)NC(=O)CNC(=O)[C@H](CCC(=O)O)NC(=O)C(C)(C)NC(=O)[C@@H](N)Cc1c[nH]cn1)[C@@H](C)O)C(C)C)C(=O)N[C@@H](C)C(=O)N[C@@](C)(Cc1ccccc1)C(=O)N[C@H](C(=O)N[C@H](C(=O)N[C@@](C)(CCCCN)C(=O)NCC(=O)NCC(N)=O)C(C)C)C(C)C` [compound 156], the EC50 worked out at 105 pM.
